Measured values published in patent EP1283052A1, “Pharmaceutical composition containing caspase-8 and /or caspase-9 useful for overcoming glucocorticoid- and cancer therapy-induced apoptosis of tumours” (Deutsches Krebsforschungszentrum Stiftung des öffentlichen …, priority 2001, dated 2003).

Test system: caspase-9 and -6
Assay: Fluorometric caspase-6/9 activity assay in P693 cells
Format: cell-based, human
Details: cisplatin 2 µg/ml alone, Fig. 5a
Description: • (a) P693 and CEM cells were treated with cisplatin (2 µg/ml) in the absence or presence of DEX (1 µM) as indicated. 24 and 48 h following treatment cells were lysed and caspase-9 activity was determined using a fluorescent caspase-9 assay and spectroscopy. • (b) P5 and CEM cells were treated as described above. 24 h after stimulation Apaf-1 was immunoprecipitated from the cell extracts using a […]. Aliquotes of the precipitates were separated by three different gels and analysed by Western blotting using rabbit polyclonal Apaf-1, mAb cytochrome c or caspase-9 antibodies. The antibody heavy chain band (IgGH) ensures equal conditions. […]
• (A) Cell culture. […] The mice were given 0.28 mg/L DEX in drinking water, and the amount of water consumed was monitored. […] The tumour volumes were measured using callipers, and calculated using, as an approximation, the formula for volume of a hemi-ellipsoid: π(width^2 x length)/6. […] Early apoptotic changes were identified by staining of cells with fluoresceinthiocyanate (FITC)-conjugated annexin V and propidium iodide (Becton Dickinson, Heidelberg, Germany) and analysed by flow cytometry (FACScan, Becton Dickinson) as described (Herr et al., EMBO J. 16 (1997), 6200-6208) • (E) Immunohistochemistry. […] Bound antibodies were detected by FITC conjugated anti-mouse or anti-rabbit IgG (Molecular Probes Europe, Leiden, The Netherlands). […]

N.N.[Cl][Pt][Cl] [cisplatin]
caspase-6/9 activity: induced 24 h following cisplatin in P693 and CEM cells with increasing activity at 48 h
